Test results published in US20200038513A1, “MODULATORS OF FAK PROTEOLYSIS AND ASSOCIATED METHODS OF USE” (ARVINAS OPERATIONS, INC., priority 2018, published 2020).
Like-named read-outs stand apart in the source and are kept apart here.

Key:
[1] = Pharmacokinetics of intraperitoneal or intravenous injection in CD1 mice; format: in vivo; conditions: for Conc. (ng/mL) Mouse 1 / Conc. (ng/mL) Mouse 2 / Conc. (ng/mL) Mouse 3 / concentration at 0.25 h / concentration at 0.5 h / concentration at 1 h / concentration at 2 h / concentration at 4 h / concentration at 8 h / concentration at 0.033 h / concentration at 0.083 h: CD1 mice plasma; for concentration at 0.25 h / concentration at 0.5 h / concentration at 1 h / concentration at 2 h / concentration at 4 h / concentration at 8 h / AUC(0-t) / half-life / concentration at 0.033 h / concentration at 0.083 h: male, CD1, mouse, plasma
Protocol: The pharmacokinetics of exemplary compounds 103, 107, 100, 101, and 102 was examined for intraperitoneal and intravenous administration. The desired serial concentrations of working solutions were achieved by diluting stock solution (1 mg/mL in DMSO) of analyte with methanol. In particular, 20 μL of working solutions (1, 2, 5, 10, 50, 100, 500, 1000, 2000 ng/mL) were added to 20 μL of the blank CD1 mice plasma to achieve calibration standards of 1-2000 ng/mL (1, 2, 5, 10, 50, 100, 500, 1000, 2000 ng/mL) in a total volume of 40 μL. Dose of IV and IP were diluted by 1000 fold and 10000 with methanol, 20 μL of the diluted dose solutions were added to 20 μL of the blank CD1 mice plasma to achieve dose samples. Next, 40 μL standards and 40 μL dose samples were added to 20 μL of IS (100 ng/mL) and 200 μL of acetonitrile for precipitating protein respectively. Then the samples were vortexed for 30 seconds. After centrifugation at 4 degree Celsius, 4000 rpm for 15 minutes, the supernatant was diluted 3 times with water. 10 μL of the diluted supernatant was injected into the LC/MS/MS system for quantitative analysis.
Exemplary compounds 103, 107, 100, 101, and 102 were administered intravenously (5 second injection of 10% HP-b-CD and 40 mM sodium acetate and 40 mM NaCl in water, pH4.5) or intraperitoneally (5% EtOH and 5% Solutol HS15 in D5W(ESD-2)) to 6-8 week old male CD1 mice (3 mice per treatment group for a total of 12 mice) at the time points indicated below in Table 7. The mice had free access to food and water.
Dorsal metatarsal vein samples (30 μL), except that the final sample was acquired via a heart puncture, were taken from the mice at the same the administration time points as shown in Table 7.

PPB = format: in vitro ADME; conditions: plasma
[2] = ip, 10 mg/kg, IP 10 mg/kg, read-out: Conc. (ng/mL) Mouse 1
[3] = ip, 10 mg/kg, IP 10 mg/kg, read-out: Conc. (ng/mL) Mouse 2
[4] = ip, 10 mg/kg, IP 10 mg/kg, read-out: Conc. (ng/mL) Mouse 3
[5] = ip, 10 mg/kg, IP 10 mg/kg, read-out: Mean
[6] = iv, 1 mg/kg, IV 1.0 mg/kg, read-out: Conc. (ng/mL) Mouse 1
[7] = iv, 1 mg/kg, IV 1.0 mg/kg, read-out: Conc. (ng/mL) Mouse 2
[8] = iv, 1 mg/kg, IV 1.0 mg/kg, read-out: Conc. (ng/mL) Mouse 3
[9] = iv, 1 mg/kg, IV 1.0 mg/kg, read-out: Mean

Cc1ncsc1-c1ccc(CNC(=O)[C@@H]2C[C@@H](O)CN2C(=O)[C@@H](NC(=O)COCCCOc2ccc(Nc3ncc(C(F)(F)F)c(NCc4cccc(N(C)S(C)(=O)=O)c4)n3)cc2)C(C)(C)C)cc1 [Compound 101, (2S,4R)-1-((S)-3,3-dimethyl-2-(2-(3-(4-((4-((3-(N-methylmethylsulfonamido)benzyl)amino)-5-(trifluoromethyl)pyrimidin-2-yl)amino)phenoxy)propoxy)acetamido)butanoyl)-4-hydroxy-N-(4-(4-methylthiazol-5-yl)benzyl)pyrrolidine-2-carboxamide]
Conc. (ng/mL) Mouse 1 ([1]; IP 10 mg/kg, 24 h): BLOQ
Conc. (ng/mL) Mouse 2 ([1]; IP 10 mg/kg, 24 h): BLOQ
Conc. (ng/mL) Mouse 3 ([1]; IP 10 mg/kg, 24 h): BLOQ
Conc. (ng/mL) Mouse 1 ([1]; IV 1.0 mg/kg, 4 h): BLOQ
Conc. (ng/mL) Mouse 3 ([1]; IV 1.0 mg/kg, 4 h): BLOQ
Conc. (ng/mL) Mouse 1 ([1]; IV 1.0 mg/kg, 8 h): BLOQ
Conc. (ng/mL) Mouse 2 ([1]; IV 1.0 mg/kg, 8 h): BLOQ
Conc. (ng/mL) Mouse 3 ([1]; IV 1.0 mg/kg, 8 h): BLOQ
Conc. (ng/mL) Mouse 1 ([1]; IV 1.0 mg/kg, 24 h): BLOQ
Conc. (ng/mL) Mouse 2 ([1]; IV 1.0 mg/kg, 24 h): BLOQ
Conc. (ng/mL) Mouse 3 ([1]; IV 1.0 mg/kg, 24 h): BLOQ
concentration at 0.25 h [1, 2]: 800 ng/mL
concentration at 0.25 h [1, 3]: 407 ng/mL
concentration at 0.25 h [1, 4]: 271 ng/mL
concentration at 0.25 h [1, 5]: 493 ng/mL
concentration at 0.5 h [1, 2]: 860 ng/mL
concentration at 0.5 h [1, 3]: 523 ng/mL
concentration at 0.5 h [1, 4]: 335 ng/mL
concentration at 0.5 h [1, 5]: 573 ng/mL
concentration at 1 h [1, 2]: 1040 ng/mL
concentration at 1 h [1, 3]: 1520 ng/mL
concentration at 1 h [1, 4]: 1780 ng/mL
concentration at 1 h [1, 5]: 1450 ng/mL
concentration at 2 h [1, 2]: 1630 ng/mL
concentration at 2 h [1, 3]: 1590 ng/mL
concentration at 2 h [1, 4]: 1180 ng/mL
concentration at 2 h [1, 5]: 1470 ng/mL
concentration at 4 h ([1]; ip, 10 mg/kg, IP 10 mg/kg, 4 h, read-out: Conc. (ng/mL) Mouse 1): 378 ng/mL
concentration at 4 h ([1]; ip, 10 mg/kg, IP 10 mg/kg, 4 h, read-out: Conc. (ng/mL) Mouse 2): 1090 ng/mL
concentration at 4 h ([1]; ip, 10 mg/kg, IP 10 mg/kg, 4 h, read-out: Conc. (ng/mL) Mouse 3): 1250 ng/mL
concentration at 4 h ([1]; ip, 10 mg/kg, IP 10 mg/kg, 4 h, read-out: Mean): 906 ng/mL
concentration at 8 h ([1]; ip, 10 mg/kg, IP 10 mg/kg, 8 h, read-out: Conc. (ng/mL) Mouse 1): 24.1 ng/mL
concentration at 8 h ([1]; ip, 10 mg/kg, IP 10 mg/kg, 8 h, read-out: Conc. (ng/mL) Mouse 2): 145 ng/mL
concentration at 8 h ([1]; ip, 10 mg/kg, IP 10 mg/kg, 8 h, read-out: Conc. (ng/mL) Mouse 3): 77.1 ng/mL
concentration at 8 h ([1]; ip, 10 mg/kg, IP 10 mg/kg, 8 h, read-out: Mean): 82 ng/mL
AUC(0-t) ([1]; ip, 10 mg/kg, read-out: AUClast (h * ng/mL) IP): 6.5 µg·h/mL
half-life ([1]; ip, 10 mg/kg, read-out: T ½ (h) IP (converted)): 1.22 h
concentration at 0.033 h [1, 6]: 2100 ng/mL
concentration at 0.033 h [1, 7]: 1800 ng/mL
concentration at 0.033 h [1, 8]: 2310 ng/mL
concentration at 0.033 h [1, 9]: 2070 ng/mL
concentration at 0.083 h [1, 6]: 356 ng/mL
concentration at 0.083 h [1, 7]: 303 ng/mL
concentration at 0.083 h [1, 8]: 432 ng/mL
concentration at 0.083 h [1, 9]: 364 ng/mL
concentration at 0.25 h [1, 6]: 50.1 ng/mL
concentration at 0.25 h [1, 7]: 47.7 ng/mL
concentration at 0.25 h [1, 8]: 47 ng/mL
concentration at 0.25 h [1, 9]: 48.3 ng/mL
concentration at 0.5 h [1, 6]: 20.9 ng/mL
concentration at 0.5 h [1, 7]: 28.6 ng/mL
concentration at 0.5 h [1, 8]: 27.7 ng/mL
concentration at 0.5 h [1, 9]: 25.7 ng/mL
concentration at 1 h [1, 6]: 8.68 ng/mL
concentration at 1 h [1, 7]: 11.6 ng/mL
concentration at 1 h [1, 8]: 9.52 ng/mL
concentration at 1 h [1, 9]: 9.9 ng/mL
concentration at 2 h [1, 6]: 5.32 ng/mL
concentration at 2 h [1, 7]: 7.86 ng/mL
concentration at 2 h [1, 8]: 5.45 ng/mL
concentration at 2 h [1, 9]: 6.21 ng/mL
concentration at 4 h ([1]; iv, 1 mg/kg, IV 1.0 mg/kg, 4 h, read-out: Conc. (ng/mL) Mouse 2): 4.59 ng/mL
AUC(0-t) ([1]; iv, 1 mg/kg, read-out: AUClast (h * ng/mL) IV): 0.268 µg·h/mL
half-life ([1]; iv, 1 mg/kg, read-out: T ½ (h) IV (converted)): 1.26 h
fraction unbound (PPB): 0.0065
